Laboratory results published in patent US11673947B2, “Target tissue-specific antigen-binding molecule” (Chugai Seiyaku Kabushiki Kaisha, priority 2012, dated 2023).

Assays:
IL-6 [1] = biological target: T1, IL-6 (Homo sapiens, UniProt P05231); experiment: Biacore T200, interaction between IL-6 and kynurenine; type: binding; parameters: purchased Kamakura Techno-Science, Inc; conditions: kynurenine at a maximal concentration of 800 nmol/l, about 5000 RU IL-6 immobilized, 25° C.
Method: The interaction between IL-6 (Kamakura Techno-Science, Inc.) and kynurenine was analyzed using Biacore T200 (GE Healthcare). Sensor chip CM5 (GE Healthcare) was immobilized with about 5000 RU of IL-6 by amine coupling, and 800, 400, 200, 100, 50, or 25 nmol/l kynurenine was allowed to interact with IL-6. The running buffer used was 10 mmol/l ACES, 150 mmol/l NaCl, 0.05% (w/v) Tween20, pH 7.4. All measurements for the interaction described above were carried out at 25° C. Kynurenine was diluted using the running buffer.
About 5000 RU of IL-6 was immobilized in the above-described experiment. The molecular weights of IL-6 and kynurenine were about 20000 g/mol and about 200 g/mol, respectively. Thus, at maximum about 50 RU of kynurenine was expected to interact.

IL-6 [2] = biological target: T1, IL-6; type: binding; parameters: purchased Kamakura Techno-Science, Inc; conditions: estimated
Method: Using Biacore T200 (GE Healthcare), A11 was analyzed for its interaction with human IL-6 (Kamakura Techno-Science, Inc.) in antigen-antibody reaction. Sensor chip CM5 (GE Healthcare) was immobilized with an appropriate amount of protein A/G (Invitrogen) by amine coupling. Antibodies of interest were captured by the chip to allow interaction to IL-6 as an antigen. The two types of running buffers used were 10 mmol/1 ACES, 150 mmol/l NaCl, 0.05% (w/v) Tween20, 100 μmol/l kynurenine, pH 7.4, and 10 mmol/1 ACES, 150 mmol/l NaCl, 0.05% (w/v) Tween20, pH 7.4. The interaction with IL-6 as an antigen was assessed at 37° C. The buffer used to dilute IL-6 was the same running buffer as described above.
A diluted solution of human IL-6 and a running buffer as a blank were injected at a flow rate of 5 μl/min for three minutes to allow interaction of human IL-6 with A11 captured on the sensor chip. […] The dissociation constant KD (M) of A11 was calculated for human IL-6 based on the association rate constant ka (1/Ms) and dissociation rate constant kd (1/s), both of which are kinetic parameters calculated from the sensorgram obtained by the measurement. Each parameter was calculated using the Biacore T200 Evaluation Software (GE Healthcare).
Then, the effect of kynurenine concentration on antigen-antibody reaction between A11 and human IL-6 was assessed using Biacore T200 (GE Healthcare). […]

BaF/hIL-6R cells = experiment: Flow cytometry, binding to membrane-type hIL-6R on BaF/hIL-6R cells; type: cell-based; conditions: with and without 100 μM kynurenine
Method: 6RNMSC1-2_F02 antibody which has an antigen-binding activity in the presence of kynurenine as described in Example 14 was assessed for its binding to soluble hIL-6R. As a first step in assessing the ADCC activity of 6RNMSC1-2_F02 to hIL-6R-expressing cells, 6RNMSC1-2_F02 was evaluated as to whether it has the ability to bind to membrane-type hIL-6R expressed in hIL-6R-expressing cells. Specifically, the binding of 6RNMSC1-2_F02 to cells of the BaF/hIL-6R line (WO2012/073992) was assayed and analyzed using a flow cytometer. An appropriate number of BaF/hIL-6R cells were prepared and blocked with PBS containing 2% FBS on ice for one hour or more. Supernatant was removed from the blocked cells by centrifugation, and 100 μl of 6RNMSC1-2_F02 or the control antibody MRA (the heavy chain and light chain sequences are shown in SEQ ID NOs: 92 and 93, respectively) was added under two conditions: in the presence or absence of a final concentration of kynurenine at 100 μM. In this step, the antibodies were contacted with cell-membrane hIL-6R on ice for 30 minutes. […] Then, in the presence or absence of kynurenine, the complex was contacted with a secondary antibody (Beckman Coulter IM1627) that recognizes the antibody constant region. […] The binding of 6RNMSC1-2_F02 to the prepared cells was assayed and analyzed using the BD FACS cant II Flow Cytometer (BD).

hIL-6R = biological target: T2, hIL-6R (Homo sapiens, UniProt P08887); experiment: IgG ELISA, binding to hIL-6R in mouse serum with or without kynurenine; conditions: mouse serum with or without kynurenine
T2 sequence (P08887 20-355 limits assumed): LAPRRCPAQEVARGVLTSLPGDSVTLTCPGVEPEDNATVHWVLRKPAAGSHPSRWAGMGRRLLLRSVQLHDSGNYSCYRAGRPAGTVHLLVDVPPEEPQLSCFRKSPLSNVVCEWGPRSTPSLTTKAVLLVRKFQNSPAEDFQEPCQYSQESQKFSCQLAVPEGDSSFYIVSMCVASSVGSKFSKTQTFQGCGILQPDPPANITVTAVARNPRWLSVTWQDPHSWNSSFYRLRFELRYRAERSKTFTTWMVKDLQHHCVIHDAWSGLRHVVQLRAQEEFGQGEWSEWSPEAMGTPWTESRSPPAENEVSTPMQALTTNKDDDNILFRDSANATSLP
Method: As described in Example 14, antibody 6RNMSC1-2_F02 which has antigen-binding activity in the presence of kynurenine, and the known anti-hIL-6R antibody MRA were subjected to ELISA under the two conditions described in Table 20. The antigen used was biotin-labeled hIL-6R.
First, a StreptaWell 96 microtiter plate (Roche) was coated at room temperature for one hour or more with 100 μl of PBS containing the biotin-labeled antigen. After washing with Wash buffer to remove unbound antigen from the plate, each well was blocked for one hour or more with 250 μl of Blocking Buffer. After Blocking Buffer was removed from each well, each of the purified IgGs was prepared to 2.5 μg/ml under condition 2 shown in Table 20, and aliquoted at 100 μl into the plate. The plate was allowed to stand at room temperature for one hour to allow binding of each IgG to the antigen in each well. After washing with Wash Buffer containing 100 μM kynurenine, an HRP-conjugated anti-human IgG antibody (BIOSOURCE) diluted with Sample Buffer containing kynurenine was added to each well. The plate was incubated for one hour. Following wash with Wash Buffer containing kynurenine, the TMB single solution (ZYMED) was added to each well. The chromogenic reaction in the solution of each well was terminated by adding sulfuric acid. Then, the developed color was assessed by measuring absorbance at 450 nm.

T1 sequence (P05231 30-212): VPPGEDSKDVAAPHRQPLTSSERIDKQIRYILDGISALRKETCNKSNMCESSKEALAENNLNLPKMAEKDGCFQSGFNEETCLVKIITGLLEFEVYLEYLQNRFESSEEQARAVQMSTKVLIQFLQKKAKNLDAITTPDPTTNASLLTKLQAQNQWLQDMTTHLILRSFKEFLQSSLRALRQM

| Molecule | interaction with IL-6 (IL-6 [1]) | KD of kynurenine for formation of the complex consisting of A11, IL-6, and kynurenine (IL-6 [2]) | fluorescence (binding to membrane-type hIL-6R) (BaF/hIL-6R cells) | absorbance, effect of kynurenine (hIL-6R) |
| --- | --- | --- | --- | --- |
| Nc1ccccc1C(=O)C[C@H](N)C(=O)O [kynurenine] | not detectable | several tens nM to several nM | – | – |
| MRA: known anti-human IL-6R antibody; SEQ ID NOs: 92 and 93 [reference compound] | – | – | detectable regardless of the presence or absence of kynurenine | the same regardless of the presence or absence of kynurenine |
